ChEMBL document CHEMBL1641532, “Thiophene and bioisostere derivatives as new MMP12 inhibitors” (Bioorg Med Chem Lett, 2011)

Molecular target: Macrophage metalloelastase (Homo sapiens, UniProt P39900)
Experiment: Inhibition of MMP-12 catalytic domain

Macrophage metalloelastase, sequence (P39900 whole entry, the tested form may be a part): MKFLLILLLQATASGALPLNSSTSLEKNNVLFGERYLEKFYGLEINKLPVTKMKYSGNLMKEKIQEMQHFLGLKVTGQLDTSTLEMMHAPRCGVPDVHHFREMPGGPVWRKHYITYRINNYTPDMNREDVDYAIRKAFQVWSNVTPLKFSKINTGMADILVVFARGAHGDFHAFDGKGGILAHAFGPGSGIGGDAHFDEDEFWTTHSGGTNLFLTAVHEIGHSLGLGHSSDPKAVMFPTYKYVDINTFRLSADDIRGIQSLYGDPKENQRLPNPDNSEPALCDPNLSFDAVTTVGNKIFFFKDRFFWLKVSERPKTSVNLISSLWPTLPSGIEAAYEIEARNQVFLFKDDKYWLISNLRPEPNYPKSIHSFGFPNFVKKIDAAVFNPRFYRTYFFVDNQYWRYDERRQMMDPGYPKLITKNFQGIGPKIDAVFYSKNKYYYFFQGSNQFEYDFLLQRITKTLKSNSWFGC

Row | SMILES | IC50 [nM]
1 | O=C(NC[C@H]1CC[C@H](C(=O)O)CC1)c1cc(-c2ccc(OC(F)(F)F)cc2)cs1 | 400
2 | O=C(NC[C@H]1CC[C@H](C(=O)O)CC1)c1cc(-c2ccc(OC(F)(F)F)cc2)ns1 | 3600
3 | O=C(NC[C@H]1CC[C@H](C(=O)O)CC1)c1cc(-c2ccc(OC(F)(F)F)cc2)sn1 | 31000
4 | O=C(O)C[C@@H](NC(=O)c1cc(-c2ccc(OC(F)(F)F)cc2)c(F)s1)c1ccccc1 | 200
5 | NC(=O)C[C@@H](NC(=O)c1cc(-c2ccc(OC(F)(F)F)cc2)c(F)s1)c1ccccc1 | 85
6 | O=C(O)C[C@@H](NC(=O)c1cc(-c2ccc(-c3ccncc3)cc2)c(F)s1)c1ccccc1 | 13
